Bridge positions count the residues as written; N and C are the ends. Square brackets hold non-standard residues; d marks the D form. Side chains are listed from the residue outwards. Peptide text beside a SMILES is read from it. * marks the point of attachment. ξ: configuration not given here. Acetyl(2-S-3ξ-cholesteryl) = CC(C)CCC[C@@H](C)[C@H]1CC[C@H]2[C@@H]3CC=C4CC(SCC(=O)*)CC[C@]4(C)[C@H]3CC[C@]12C; R8 = C=CCCCCCC[C@@](C)(N)C(=O)O; PEG4 = NCCOCCOCCOCCOCCC(=O)O; S5 = C=CCCC[C@](C)(N)C(=O)O
System: wild type EBOV
Details: 24 h

SMILES: CC[C@H](C)[C@H](NC(=O)[C@H](C)NC(=O)[C@H](CS)NC(=O)[C@H](CC(=O)O)NC(=O)[C@@H]1CCCN1C(=O)CNC(=O)[C@H](CC(C)C)NC(=O)[C@@H](NC(=O)[C@H](Cc1c[nH]cn1)NC(=O)[C@H](CS)NC(=O)[C@@H](NC(C)=O)[C@@H](C)O)[C@@H](C)CC)C(=O)N[C@@H](CCC(=O)O)C(=O)N1CCC[C@H]1C(=O)N[C@@H](Cc1c[nH]cn1)C(=O)N[C@@H](CC(=O)O)C(=O)N[C@@H](Cc1c[nH]c2ccccc12)C(=O)N[C@H](C(=O)N[C@]1(C)CCCCCCC=CCCC[C@@](C)(C(=O)N[C@@H](CCC(N)=O)C(=O)N[C@H](C(=O)N[C@H](C(=O)N[C@@H](Cc2c[nH]cn2)C(=O)N[C@@H](CC(=O)O)C(=O)N[C@@H](Cc2ccccc2)C(=O)N[C@H](C(=O)N[C@@H](CCCCNC(=O)CCOCCOCCOCCOCCNC(=O)CSC2CC[C@@]3(C)C(=CC[C@H]4[C@@H]5CC[C@H]([C@H](C)CCCC(C)C)[C@@]5(C)CC[C@@H]43)C2)C(N)=O)C(C)C)[C@@H](C)CC)[C@@H](C)CC)NC(=O)[C@H]([C@@H](C)CC)NC(=O)[C@H](CCCCN)NC(=O)[C@H](CC(=O)O)NC(=O)[C@H]([C@@H](C)O)NC(=O)[C@H]([C@@H](C)CC)NC(=O)[C@H](CC(N)=O)NC1=O)[C@@H](C)O (stereo partly shown) [SEQ ID NO:22, TCHILGPDCAIEPHDWT8NITDKIXQIIHDFV*] (Ac-TCHILGPDCAIEPHDWT[R8]NITDKI[S5]QIIHDFVK([PEG4-Acetyl(2-S-3ξ-cholesteryl)])-NH2; staple 18-25)
- IC50: ~1500 nM
